Entries after “also recorded” stand apart in the source; their conditions may differ.
Tests used:
Assay type in all cases: cell-based, mouse
[1] = test system: NIH/3T3 fibroblasts; assay: Cell viability, ethidium homodimer-1 dead assay after the experiment; details: ethidium homodimer dead assay after each experiment
Text: The dead assay was taken from a Live/Dead Viability/Cytotoxicity kit from Molecular Probes. DiO and EthD show virtually no overlap in excitation/emission wavelengths, being 484/501 nm and 528/617 nm, respectively.

[2] = test system: NIH/3T3 fibroblasts; assay: Fiber bundle whole-cell migration assay (residence time, 25 μm fibers); details: ten minutes per frame, average of 30 fibers, ten hours, control 4.3±2.9 frames
Protocol: (§1) After labeling, the cells were allowed to settle and adhere to a fibronectin-coated fiber bundle that had been secured to a delta T4 dish (FIG. 1A). Fibers were placed into the delta T4 dish to maintain the temperature at 37° C. during experiments. […] After cells were allowed to adhere to the bundle's distal end, it was mounted on an inverted microscope stage, and excitation light was introduced through the proximal end of the fiber bundle. The fiber bundle is not connected directly to any part of the microscope, but remains within a centimeter of the objective. The excitation light was transferred through the fiber bundle to the distal end, where it excited the Vibrant DiO dye in the cell membrane (FIG. 1B). The resulting fluorescence emission light was then carried back through the fiber bundle to a CCD camera. […]
(§2) Cell migration was detected using two types of fiber bundles differing in the sizes of the individual fibers. […]
Migration is quantified as an increase in intensity at a particular fiber, as a fluorescently dyed cell moves across that fiber. […]
In this example, a threshold was assigned for each selected fiber at 75% of the maximum peak intensity for that particular fiber. […] The number of frames that the intensity stays above this threshold is counted for each fiber, and then averaged for all 30 fibers, giving an average residence time for the experiment (FIG. 2D). […]

[3] = test system: NIH/3T3 fibroblasts; assay: Fiber bundle subcellular imaging assay (residence time, 4.5 μm fibers); details: 10 seconds per frame, top 30 fibers, 5-minute experiment, control 7.5±7.4 frames
Protocol: as §1, with “The excitation light was transferred through the fiber bundle to the distal end, where it excited the Vibrant DiO dye in the cell membrane (FIG. 1B).” left out
as §2
The data shown in FIG. 3C originate from an experiment in which three separate fibers were exposed to successively higher concentrations of nocodazole. […] Regions of the cell periphery can be difficult to distinguish from the background, because the fluorescence intensity gradually diminishes at the cell perimeter. […]
Timelapse recording was performed to determine the extent of cell migration or membrane motion across the fiber surface. […] Cell movement was recorded on delta T4 dishes (data not shown), as well as on Schott and Illumina fiber bundles. […] All movement was recorded using a fluorescein filter set. […]

With `COC(=O)Nc1nc2ccc(C(=O)c3cccs3)cc2[nH]1` [nocodazole, Nocodazole] the “cell viability after nocodazole treatment” value [1] was “all cells were alive; also recorded: Cells were determined to be alive”, the average residence time ([2]; 200 nM nocodazole) was 18.8±10.3 frames and the average residence time ([2]; 300 nM nocodazole) was 24.6±18.6 frames. The average residence time ([3]; 200 nM nocodazole) was 13.2±8.0 frames and the average residence time ([3]; 300 nM nocodazole) was 19.0±9.4 frames.

— patent publication US20080032324A1, “Apparatus and method for cell migration assays” (The Trustees Of Tufts College, priority 2004, published 2008)
